In this experiment the test system is BDF1 mice, B16 melanoma ip, median survival T/C. Put plainly: NCI In Vivo Anticancer Drug Screen. Data for tumor model B16 Melanoma (intraperitoneal) in B6D2F1 (BDF1) mice. The conditions noted are these: endpoint: median survival time, higher = longer survival. An outline of the steps: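 Vehicle-treated animals serve as the reference (C); treated animals (T) are scored for survival or tumor size after tumor transplantation.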

Setting [1] is: dose: 25.0 mg/kg/injection, schedule: Q01DX009 (ip), vehicle: Klucel (hydroxypropylcellulose) (HPC).
Setting [2] is: dose: 50.0 mg/kg/injection, schedule: Q01DX009 (ip), vehicle: Klucel (hydroxypropylcellulose) (HPC).
[3] abbreviates: dose: 50.0 mg/kg/injection, schedule: Q01DX009 (ip), vehicle: saline with Tween-80.
Setting [4] is: dose: 100.0 mg/kg/injection, schedule: Q01DX009 (ip), vehicle: saline with Tween-80.
Setting [5] is: dose: 200.0 mg/kg/injection, schedule: Q01DX009 (ip), vehicle: saline with Tween-80.
Where [6] appears, read: dose: 100.0 mg/kg/injection, schedule: Q01DX009 (ip), vehicle: Klucel (hydroxypropylcellulose) (HPC).
The mark [7] stands for this setting: dose: 6.25 mg/kg/injection, schedule: Q01DX009 (ip), vehicle: saline with Tween-80.
The mark [8] stands for this setting: dose: 12.5 mg/kg/injection, schedule: Q01DX009 (ip), vehicle: saline with Tween-80.
Setting [9] is: dose: 25.0 mg/kg/injection, schedule: Q01DX009 (ip), vehicle: saline with Tween-80.
Setting [10] is: dose: 6.25 mg/kg/injection, schedule: Q01DX009 (ip), vehicle: Klucel (hydroxypropylcellulose) (HPC).
Where [11] appears, read: dose: 12.5 mg/kg/injection, schedule: Q01DX009 (ip), vehicle: Klucel (hydroxypropylcellulose) (HPC).

“And” between values parts separate entries of the source, which are not always exact repeats. Equal values may be shown once. Inconclusive results and toxic doses are left out. Square brackets hold non-standard residues; d marks the D form. Peptide text beside a SMILES is read from it. ξ: configuration not given here. ξV = CC(C)C(N)C(=O)O

Regarding `COC(=O)/C(C)=C/C=C/C(OC)C(OC(N)=O)/C(C)=C/C(C)C(O)C(CC(C)CC1=C(OC)C(=O)C=C(N)C1=O)OC` (configuration not stated), the T/C runs as follows: (dose: 12.5 mg/kg/injection, schedule: Q01DX005 (ip), vehicle: other) 103 % of control; (dose: 25.0 mg/kg/injection, schedule: Q01DX005 (ip), vehicle: other) 99 % of control; (dose: 50.0 mg/kg/injection, schedule: Q01DX005 (ip), vehicle: other) 108 % of control; (dose: 100.0 mg/kg/injection, schedule: Q01DX005 (ip), vehicle: other) 108 % of control; (dose: 200.0 mg/kg/injection, schedule: Q01DX005 (ip), vehicle: other) 86 % of control.
In the case of `C1CC[N-]CC1.CC(=N\O)/C(C)=N/O.CC(=N\O)/C(C)=N/O.[CH2-]C.[Co+2]`, the T/C was 111 % of control under setting [1] and 102 % of control under setting [2].
Take `CCCNCCN(CC)CC`: the T/C is 107 % of control under setting [3], 100 % of control under setting [4] and 99 % of control under setting [5].
Turning to `C=C(C)C(=O)O[C@H]1[C@H]2[C@H](OC(=O)[C@H]2C)[C@H](O)[C@@H](C)[C@@H]2C=CC(=O)[C@]21C`, the T/C (dose: 7.5 mg/kg/injection, schedule: Q01DX009 (ip), vehicle: saline) is 100 % of control; the T/C (dose: 15.0 mg/kg/injection, schedule: Q01DX009 (ip), vehicle: saline with Tween-80) was 98 % of control; the T/C (dose: 15.0 mg/kg/injection, schedule: Q01DX009 (ip), vehicle: saline) is 106 % of control; the T/C (dose: 30.0 mg/kg/injection, schedule: Q01DX009 (ip), vehicle: saline with Tween-80) is 114 % of control; the T/C (dose: 30.0 mg/kg/injection, schedule: Q01DX009 (ip), vehicle: saline) is 117 % of control; the T/C (dose: 60.0 mg/kg/injection, schedule: Q01DX009 (ip), vehicle: saline with Tween-80) was 119 % of control.
With `C=CCN1C(=O)C=CC1=O`, the T/C is 102 % of control (dose: 0.75 mg/kg/injection, schedule: Q01DX009 (ip), vehicle: saline) and 93 % of control (dose: 1.5 mg/kg/injection, schedule: Q01DX009 (ip), vehicle: saline).
As for `O=C(O)c1ccc2c([N+](=O)[O-])cccc2n1`, the T/C reads like this: under setting [2], 112 % of control; under setting [6], 112 % of control.
Take `Cc1cc(Cl)ccc1NC(=O)CCl`: the T/C by setting is: under setting [4], 100 % of control; under setting [5], 95 % of control.
`CCCCCCCCCCCCCCCCCC(=O)NNCCO`: the T/C under setting [3] is 86 % of control.
Regarding `CC(C)C(NC(=O)CNC(=O)CN)C(=O)O` (stereo not drawn) (H-Gly-Gly-[ξV]-OH), the T/C is 95 % of control (dose: 100.0 mg/kg/injection, schedule: Q01DX009 (ip), vehicle: saline); 100 % of control (dose: 100.0 mg/kg/injection, schedule: Q04DX003 (ip), vehicle: saline); 97 % of control (dose: 200.0 mg/kg/injection, schedule: Q01DX009 (ip), vehicle: saline); 97 % of control (dose: 200.0 mg/kg/injection, schedule: Q04DX003 (ip), vehicle: saline); 95 % of control (dose: 400.0 mg/kg/injection, schedule: Q01DX009 (ip), vehicle: saline); 95 % of control (dose: 400.0 mg/kg/injection, schedule: Q04DX003 (ip), vehicle: saline).
On to `CCCCCC[N+](CCCCCC)(CCCCCC)CCCCCC`, for which the T/C was 88 % of control (dose: 0.75 mg/kg/injection, schedule: Q01DX009 (ip), vehicle: Klucel (hydroxypropylcellulose) (HPC)) and 90 % of control (dose: 1.5 mg/kg/injection, schedule: Q01DX009 (ip), vehicle: Klucel (hydroxypropylcellulose) (HPC)).
`CC(=O)OC1c2ccccc2C(=O)C1(OC(C)=O)c1ccccc1` (configuration not stated): the T/C was 102 % of control under setting [2]; 94 % of control under setting [6]; 102 % of control (dose: 200.0 mg/kg/injection, schedule: Q01DX009 (ip), vehicle: Klucel (hydroxypropylcellulose) (HPC)).
As to `COC(=O)C1CC(C)(C)N(C)C1(C)C` (configuration not stated), the T/C reads like this: under setting [2], 93 % of control; under setting [6], 94 % of control.
For `N#CO`, the T/C was 100 % of control (dose: 18.7 mg/kg/injection, schedule: Q01DX009 (ip), vehicle: saline); 105 % of control (dose: 37.5 mg/kg/injection, schedule: Q01DX009 (ip), vehicle: saline); 105 % of control (dose: 75.0 mg/kg/injection, schedule: Q01DX009 (ip), vehicle: saline).
As for `CNC(=S)C(=S)NC`, the T/C runs as follows: under setting [7], 102 % of control; under setting [8], 120 % of control; under setting [9], 107 % of control.
As for `CC(CCc1ccccc1)NC(C)C(O)c1ccc(O)cc1` (configuration not stated), the T/C reads like this: under setting [10], 93 % of control; under setting [11], 105 % of control; under setting [1], 94 % of control; under setting [2], 105 % of control; under setting [6], 115 % of control.
In the case of `O=S(CCCl)CCCl`, the T/C was 95 % of control and 107 % of control (dose: 1.56 mg/kg/injection, schedule: Q01DX009 (ip), vehicle: Klucel (hydroxypropylcellulose) (HPC)); 94 % of control and 103 % of control (dose: 3.12 mg/kg/injection, schedule: Q01DX009 (ip), vehicle: Klucel (hydroxypropylcellulose) (HPC)); 111 % of control under setting [10]; 99 % of control under setting [11]; 89 % of control under setting [1]; 91 % of control under setting [2].
Consider `O=C1NC2C(NC(=O)N2Cl)N1Cl` (configuration not stated), for which the T/C by setting is: (dose: 3.13 mg/kg/injection, schedule: Q01DX009 (ip), vehicle: saline with Tween-80) 101 % of control; under setting [7], 98 % of control; under setting [8], 90 % of control and 98 % of control; (dose: 12.5 mg/kg/injection, schedule: Q01DX009 (ip), vehicle: saline) 101 % of control; under setting [9], 86 % of control; (dose: 25.0 mg/kg/injection, schedule: Q01DX009 (ip), vehicle: saline) 94 % of control. Further, the T/C (dose: 25.0 mg/kg/injection, schedule: Q04DX003 (ip), vehicle: saline with Tween-80) is 105 % of control.
As to `CC(CN1CCN(CCOCCO)CC1)CN1c2ccccc2Sc2ccc(Cl)cc21` (configuration not stated), the T/C runs as follows: (dose: 0.09 mg/kg/injection, schedule: Q01DX009 (ip), vehicle: saline) 117 % of control; (dose: 0.19 mg/kg/injection, schedule: Q01DX009 (ip), vehicle: saline) 98 % of control; (dose: 0.39 mg/kg/injection, schedule: Q01DX009 (ip), vehicle: saline) 121 % of control; (dose: 0.78 mg/kg/injection, schedule: Q01DX009 (ip), vehicle: saline) 104 % of control; (dose: 1.56 mg/kg/injection, schedule: Q01DX009 (ip), vehicle: saline) 115 % of control; (dose: 3.12 mg/kg/injection, schedule: Q01DX009 (ip), vehicle: saline) 100 % of control. Besides, where the note is “dose: 6.25 mg/kg/injection, schedule: Q01DX009 (ip), vehicle: saline”, the T/C was 101 % of control.
`Cc1c(Cl)cccc1NC(=O)COc1ccc(Cl)cc1`: the T/C is, setting by setting: under setting [8], 96 % of control; under setting [9], 90 % of control; under setting [3], 88 % of control.
Turning to `Cc1c2cc[n+](C)cc2c(C)c2c1[nH]c1ccc(O)cc12`, the T/C is 111 % of control (dose: 0.06 mg/kg/injection, schedule: Q01DX009 (ip), vehicle: water) and 158 % of control (dose: 0.25 mg/kg/injection, schedule: Q01DX009 (ip), vehicle: water).

The values are drawn from PubChem BioAssay AID192 (DTP/NCI, 2004).
